Measured values: paper PMC6979384, “Characterization of the plant homeodomain (PHD) reader family for their histone tail interactions” (Epigenetics & Chromatin, 2020)

Legend:
Assay in all cases: Histone peptide microarray
Type in all cases: binding, human
[1] = test system: KDM5A (1); conditions: KDM5A (1); sheet "Array Heatmap"; each array performed twice, total n = 4
Outline: (§1)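 Binding read as mean relative signal from 4 replicates; microarray held 293 synthetic histone peptides with single or combinatorial PTMs. Each GST-tagged PHD reader was applied at 0.5 μM using the optimized Petell protocol.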

[2] = test system: PHF23; conditions: PHF23; sheet "Array Heatmap"; each array performed twice, total n = 4
Outline: as §1

[3] = test system: SP140L; conditions: SP140L; sheet "Array Heatmap"; each array performed twice, total n = 4
Outline: as §1

[4] = test system: ING2; conditions: ING2; sheet "Array Heatmap"; each array performed twice, total n = 4
Outline: as §1

[5] = test system: AIRE (PP); conditions: AIRE (PP); sheet "Array Heatmap"; each array performed twice, total n = 4
Outline: as §1

[6] = test system: RAG2; conditions: RAG2; sheet "Array Heatmap"; each array performed twice, total n = 4
Outline: as §1

[7] = test system: TRIM66 (PB); conditions: TRIM66 (PB); sheet "Array Heatmap"; each array performed twice, total n = 4
Outline: as §1

[8] = test system: KDM5B (3); conditions: KDM5B (3); sheet "Array Heatmap"; each array performed twice, total n = 4
Outline: as §1

[9] = test system: MLL5; conditions: MLL5; sheet "Array Heatmap"; each array performed twice, total n = 4
Outline: as §1

[10] = test system: DPF2 (PPC2W2); conditions: DPF2 (PPC2W2); sheet "Array Heatmap"; each array performed twice, total n = 4
Outline: as §1

[11] = test system: PHF8; conditions: PHF8; sheet "Array Heatmap"; each array performed twice, total n = 4
Outline: as §1

[12] = test system: KDM7A; conditions: KDM7A; sheet "Array Heatmap"; each array performed twice, total n = 4
Outline: as §1

[13] = test system: KDM4C (TTP); conditions: KDM4C (TTP); sheet "Array Heatmap"; each array performed twice, total n = 4
Outline: as §1

[14] = test system: CHD5 (PPCC); conditions: CHD5 (PPCC); sheet "Array Heatmap"; each array performed twice, total n = 4
Outline: as §1

[15] = test system: PHF21A; conditions: PHF21A; sheet "Array Heatmap"; each array performed twice, total n = 4
Outline: as §1

[16] = test system: PHF2; conditions: PHF2; sheet "Array Heatmap"; each array performed twice, total n = 4
Outline: as §1

[17] = test system: CHD4 (PPCC); conditions: CHD4 (PPCC); sheet "Array Heatmap"; each array performed twice, total n = 4
Outline: as §1

[18] = test system: PHF13; conditions: PHF13; sheet "Array Heatmap"; each array performed twice, total n = 4
Outline: as §1

[19] = test system: ING1; conditions: ING1; sheet "Array Heatmap"; each array performed twice, total n = 4
Outline: as §1

[20] = test system: TAF3; conditions: TAF3; sheet "Array Heatmap"; each array performed twice, total n = 4
Outline: as §1

[21] = test system: KDM5B (1); conditions: KDM5B (1); sheet "Array Heatmap"; each array performed twice, total n = 4
Outline: as §1

[22] = test system: BPTF (PB); conditions: BPTF (PB); sheet "Array Heatmap"; each array performed twice, total n = 4
Outline: as §1

[23] = test system: MORC3 (CW); conditions: MORC3 (CW); sheet "Array Heatmap"; each array performed twice, total n = 4
Outline: as §1

[24] = test system: ING5; conditions: ING5; sheet "Array Heatmap"; each array performed twice, total n = 4
Outline: as §1

[25] = test system: CHD5 (PCC); conditions: CHD5 (PCC); sheet "Array Heatmap"; each array performed twice, total n = 4
Outline: as §1

[26] = test system: ING3; conditions: ING3; sheet "Array Heatmap"; each array performed twice, total n = 4
Outline: as §1

[27] = test system: KDM5A (3); conditions: KDM5A (3); sheet "Array Heatmap"; each array performed twice, total n = 4
Outline: as §1

[28] = test system: ING4; conditions: ING4; sheet "Array Heatmap"; each array performed twice, total n = 4
Outline: as §1

[29] = test system: BAZ2B; conditions: BAZ2B; sheet "Array Heatmap"; each array performed twice, total n = 4
Outline: as §1

[30] = test system: PHRF1 (RP); conditions: PHRF1 (RP); sheet "Array Heatmap"; each array performed twice, total n = 4
Outline: as §1

[31] = test system: DIDO1; conditions: DIDO1; sheet "Array Heatmap"; each array performed twice, total n = 4
Outline: as §1

H3K18ac (1-32): H3 1-32
Array Heatmap value (peptide array signal) [1]: 0.4813 | Array Heatmap value (peptide array signal) [2]: 0.5317 | Array Heatmap value (peptide array signal) [3]: 0.3664 | Array Heatmap value (peptide array signal) [4]: 0.6127 | Array Heatmap value (peptide array signal) [5]: 0.5458 | Array Heatmap value (peptide array signal) [6]: 0.2621 | Array Heatmap value (peptide array signal) [7]: 0.5982 | Array Heatmap value (peptide array signal) [8]: 0.448 | Array Heatmap value (peptide array signal) [9]: 0.5655 | Array Heatmap value (peptide array signal) [10]: 0.7444 | Array Heatmap value (peptide array signal) [11]: 0.3597 | Array Heatmap value (peptide array signal) [12]: 0.3927 | Array Heatmap value (peptide array signal) [13]: 0.505 | Array Heatmap value (peptide array signal) [14]: 0.5424 | Array Heatmap value (peptide array signal) [15]: 0.434 | Array Heatmap value (peptide array signal) [16]: 0.4084 | Array Heatmap value (peptide array signal) [17]: 0.5307 | Array Heatmap value (peptide array signal) [18]: 0.586 | Array Heatmap value (peptide array signal) [19]: 0.5268 | Array Heatmap value (peptide array signal) [20]: 0.2816 | Array Heatmap value (peptide array signal) [21]: 0.7307 | Array Heatmap value (peptide array signal) [22]: 0.3434 | Array Heatmap value (peptide array signal) [23]: 0.4635 | Array Heatmap value (peptide array signal) [24]: 0.3576 | Array Heatmap value (peptide array signal) [25]: 0.7075 | Array Heatmap value (peptide array signal) [26]: 0.4519 | Array Heatmap value (peptide array signal) [27]: 0.5027 | Array Heatmap value (peptide array signal) [28]: 0.4589 | Array Heatmap value (peptide array signal) [29]: 0.4901 | Array Heatmap value (peptide array signal) [30]: 0.6228 | Array Heatmap value (peptide array signal) [31]: 0.6775
